Data reported in publication PMC9782315, “Site-Specific Albumin-Selective Ligation to Human Serum Albumin under Physiological Conditions” (Bioconjugate Chemistry, 2022).
Where two headings read alike, the source gives them in different places. Where a SMILES comes first, the peptide text is derived from it. [ ]: non-standard residue; d: D form. The star is where a group is joined. Biotin = O=C1N[C@H]2[C@H](CS[C@H]2CCCCC(=O)*)N1; Myristoyl = CCCCCCCCCCCCCC(=O)*; Aad = N[C@@H](CCCC(=O)O)C(=O)O; AEEA = NCCOCCOCC(=O)O

What was measured:
[1] = target: T1, HSA (Homo sapiens, UniProt P02768); assay: Bio-layer interferometry (BLI) assay of non-covalent biotinylated RAEs with HSA; format: binding; conditions: human serum albumin (HSA)
T1 construct: purchased Sigma Aldrich
T1 sequence (P02768 25-609): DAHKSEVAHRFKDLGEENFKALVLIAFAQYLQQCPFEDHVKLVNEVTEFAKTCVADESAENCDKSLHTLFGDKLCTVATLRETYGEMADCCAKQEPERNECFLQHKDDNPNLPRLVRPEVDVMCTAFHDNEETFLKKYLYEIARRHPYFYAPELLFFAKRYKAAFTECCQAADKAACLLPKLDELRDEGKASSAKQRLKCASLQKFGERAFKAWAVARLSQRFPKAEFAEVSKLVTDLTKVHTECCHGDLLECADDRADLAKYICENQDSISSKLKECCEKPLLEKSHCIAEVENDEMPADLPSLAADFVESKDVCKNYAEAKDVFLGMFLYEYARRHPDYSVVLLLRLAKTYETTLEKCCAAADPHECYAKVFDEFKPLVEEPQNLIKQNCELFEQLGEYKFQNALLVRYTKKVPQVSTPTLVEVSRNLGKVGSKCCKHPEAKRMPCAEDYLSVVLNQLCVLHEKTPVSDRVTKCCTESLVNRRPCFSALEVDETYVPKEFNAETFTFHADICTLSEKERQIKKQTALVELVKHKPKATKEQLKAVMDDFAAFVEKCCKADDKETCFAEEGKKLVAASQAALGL
Description: S5. BLI Assay for Biotinylated Non-covalent Peptidomimetics.
Figure S6 Chemical Structure of Non-covalent Biotinylated RAEs (NCB-LYL1-4, NCB-LYLG) Biotinylated Non-covalent RAEs was synthesized by replacing acrylamide with acetyl group to study the intrinsic binding affinity of peptidomimetics using bio-layer interferometry (BLI) assay. For BLI assay, 1 μM non-covalent biotinylated RAEs (Figure S6) solution was prepared by kinetic buffer as the bait. As the fish, HSA solution at various concentration prepared by serial dilution using kinetic buffer, and the last well of dilution was filled with kinetic buffer as the reference well. Using 96-well plate, the biosensors were equilibrated in kinetic buffer for 60s. Then biosensors dipped ligands […]
wells, kinetic buffer wells, HSA well, kinetic buffer wells again for 120s, 60s, 480s, 960s as loading, baseline, association, and dissociation step, respectively. The data was subtracted by reference wells and processed by ForteBio Data Analysis software to derive the Kd value using steady-state approximation by 1:1 model (Figure S7-S8)
Figure S7 Bio-layered Interferometry for NCB-LYL1-4 and NCB -LYL -G
(1 picture or pasted object on this page, not shown here)

[2] = target: T1, HSA; assay: Neutravidin pull-down assay for conjugation yield of biotinylated HSA; format: biochemical
Description: Zeba spin desalting columns were pre-equilibrated by PBS buffer 3 times on
centrifugation (1500 x g, 1 minute). After conjugation, HSA-LYL conjugates passed
through the equilibrated Zeba desalting column. The flow through was collected and
further condensed by a 500 μL ultracentrifugation tube (MW cutoff = 3000) at 1 5000
rpm at 4 °C for 15 minutes. The resulting condensed solution was immediately
reconstituted by PBS (pH = 7.2), and the condensation process was repeated 2 times to
further remove biotinylated peptidomimetics. After that, the condensed HSA conjugate
(typically 20-50 μL) was diluted by 100 μL PBS for Neutravidin pull-down assay.
Using neutravidin-immobilized agarose, the NeutrAvidin pull-down assay intercepted
biotinylated proteins through biotin-avidin interaction. Therefore, the conjugation yield
can be determined by measuring the difference caused by NeutrAvidin pull -down.
The yield of conjugation is calculated based on the concentration difference of HSA
before and after passing through Neutrvidin agarose, which is calculated by following
𝑌𝑖𝑒𝑙𝑑 = 𝐶𝐻𝑆𝐴 𝑆𝑡𝑜𝑐𝑘−𝐶𝐻𝑆𝐴 𝐹𝑙𝑜𝑤−𝑡ℎ𝑟𝑜𝑢𝑔ℎ × 100% (1) […]
concentration was determined by Bicinchoninic acid (BCA) assay. […]
coulometric reactions were performed at 68°C for 30 minutes and the UV absorbance at
562 nm was measured by plate reader. […]
fluorescence intensity of corresponding Western blots.
was calculated without background subtraction .

[3] = BLI, 1 μM non-covalent biotinylated RAE as bait, HSA serial dilution in kinetic buffer, association 480 s, dissociation 960 s, steady-state, 1:1 model, read-out: Kd

Compound	Kd at 480 s [1, 3] [nM]	also measured
CCCCCCCCCCCCCC(=O)NCC(=O)NCC(=O)N[C@@H](CCCCNC(C)=O)C(=O)NCC(=O)NCC(=O)NCCOCCOCC(=O)NCCOCCOCC(=O)N[C@@H](CCCCNC(=O)CCCC[C@@H]1SC[C@@H]2NC(=O)N[C@@H]21)C(N)=O [NCB-LYLG] (Myristoyl-GGK(Ac)GG[AEEA][AEEA]K(Biotin)-NH2)		Kd at 480 s ([1]; BLI assay, non-covalent (acetyl instead of acrylamide) biotinylated RAEs, read-out: Kd / binding affinity toward HSA): 12000 nM
CCCCCCCCCCCCCC(=O)N[C@H](CCC(=O)O)C(=O)N[C@@H](CCCC(=O)O)C(=O)N[C@@H](CCCCNC(C)=O)C(=O)N[C@@H](CC(=O)O)C(=O)N[C@@H](Cc1ccc(O)cc1)C(=O)NCCOCCOCC(=O)NCCOCCOCC(=O)N[C@@H](CCCCNC(=O)CCCC[C@@H]1SC[C@@H]2NC(=O)N[C@@H]21)C(N)=O [NCB-LYL2] (Myristoyl-[dE][Aad]K(Ac)DY[AEEA][AEEA]K(Biotin)-NH2)	1000	
O=C1N[C@H]2[C@H](CS[C@H]2CCCCC(=O)Oc2ccc([N+](=O)[O-])cc2)N1 [NBE, 4-Nitrophenyl biotin ester]		Conjugation Yield ([2]; 10 μM HSA, 50 μM RAE or NBE, PBS pH 7.2, room temperature, 1 h, BCA read-out, 3 replications, no background subtraction): 99.0%; uptake by immobilized neutravidin agarose (conjugation yield, text) ([2]; initial condition, physiological pH 7.2, 1 h): ~100%
CCCCCCCCCCCCCC(=O)N[C@H](CCC(=O)O)C(=O)N[C@@H](CC(=O)O)C(=O)N[C@@H](CCCCNC(C)=O)C(=O)N[C@H](CO)C(=O)N[C@@H](CCCC(=O)O)C(=O)NCCOCCOCC(=O)NCCOCCOCC(=O)N[C@@H](CCCCNC(=O)CCCC[C@@H]1SC[C@@H]2NC(=O)N[C@@H]21)C(N)=O [NCB-LYL1] (Myristoyl-[dE]DK(Ac)[dS][Aad][AEEA][AEEA]K(Biotin)-NH2)	1400	

The next lines start with results.

Kd at 480 s [1, 3] [nM]	Compound	also measured
2400	CCCCCCCCCCCCCC(=O)N[C@H](CCC(=O)O)C(=O)N[C@@H](CCCCNC(C)=O)C(=O)N[C@@H](CCCC(=O)O)C(=O)N[C@H](CCC(=O)O)C(=O)NCCOCCOCC(=O)NCCOCCOCC(=O)N[C@@H](CCCCNC(=O)CCCC[C@@H]1SC[C@@H]2NC(=O)N[C@@H]21)C(N)=O [NCB-LYL3] (Myristoyl-[dE]K(Ac)[Aad][dE][AEEA][AEEA]K(Biotin)-NH2)	
2800	CCCCCCCCCCCCCC(=O)N[C@H](C)C(=O)N[C@@H](CCCC(=O)O)C(=O)N[C@@H](CCCCNC(C)=O)C(=O)N[C@H](CCC(=O)O)C(=O)N[C@H](CO)C(=O)NCCOCCOCC(=O)NCCOCCOCC(=O)N[C@@H](CCCCNC(=O)CCCC[C@@H]1SC[C@@H]2NC(=O)N[C@@H]21)C(N)=O [NCB-LYL4] (Myristoyl-[dA][Aad]K(Ac)[dE][dS][AEEA][AEEA]K(Biotin)-NH2)	
